From ChEMBL document CHEMBL4715734, “Discovery of the Potent and Selective M1 PAM-Agonist N-[(3R,4S)-3-Hydroxytetrahydro-2H-pyran-4-yl]-5-methyl-4-[4-(1,3-thiazol-4-yl)benzyl]pyridine-2-carboxamide (PF-06767832): Evaluation of Efficacy and Cholinergic Side Effects” (J Med Chem, 2016)

Experiments:
[1] = Permeability of compound in MDCKII-LE cells; format: ADME, cell-based, Canis lupus familiaris; conditions: dog, MDCK; read-out: permeability
[2] = Intrinsic clearance in human liver microsome; format: ADME; conditions: liver microsomes, read-out: CLH
MDR1 (P-gp) = assay: Efflux ratio of permeability across basolateral to apical side over apical to basolateral side in dog MDCK-MDR1 cells; format: ADME, cell-based, Canis lupus familiaris
[3] = biological target: T1, Muscarinic acetylcholine receptor M1 (Homo sapiens, UniProt P11229); assay: Positive allosteric modulation of human muscarinic M1 receptor stably expressed in CHO cells assessed as increase in Ach-induced intracellular calcium level preincubated for 10 mins followed by addition of Ach at EC20 concentration by Fluo-8AM dye based FLIPR TETRA method; format: functional, cell-based
T1 sequence (P11229 whole entry): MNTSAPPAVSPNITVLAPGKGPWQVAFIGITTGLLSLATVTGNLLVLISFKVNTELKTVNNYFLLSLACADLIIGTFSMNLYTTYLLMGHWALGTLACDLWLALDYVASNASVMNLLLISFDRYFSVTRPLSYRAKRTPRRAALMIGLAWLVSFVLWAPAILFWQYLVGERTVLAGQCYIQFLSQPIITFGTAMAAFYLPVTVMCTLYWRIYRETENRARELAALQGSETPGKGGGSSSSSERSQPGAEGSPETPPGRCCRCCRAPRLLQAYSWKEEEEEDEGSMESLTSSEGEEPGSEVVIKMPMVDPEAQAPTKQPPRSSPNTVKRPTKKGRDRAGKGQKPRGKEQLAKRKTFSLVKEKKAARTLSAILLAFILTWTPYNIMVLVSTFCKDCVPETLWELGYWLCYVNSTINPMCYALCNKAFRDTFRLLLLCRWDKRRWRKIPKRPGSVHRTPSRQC

[4] = Ratio of AUC in mouse brain to plasma; format: ADME, cell-free; conditions: brain and plasma, read-out: Ratio AUC
[5] = Fraction unbound in C57BL/6 mouse plasma; format: ADME, cell-free
[6] = Fraction unbound in rat brain; format: ADME, cell-free
[7] = Ratio of fAUC in C57BL/6 mouse brain to plasma; format: ADME, cell-free; conditions: brain and plasma, read-out: Ratio AUC
[8] = Ratio of AUC in C57BL/6 mouse brain to plasma at 1 mg/kg, sc; format: ADME, organism-based; conditions: brain and plasma, read-out: Ratio AUC

| SMILES | Papp [1] [×10⁻⁶ cm/s] | CLint scaled [2] [mL/min/kg] | efflux ratio (MDR1 (P-gp)) | EC50 [3] [nM] | Kp [4] | Fu [5] [%] | Fu [6] [%] | Kp uu [7] | Kp [8] |
| --- | --- | --- | --- | --- | --- | --- | --- | --- | --- |
| Cc1c(Cc2ccc(-c3ccn(C)n3)cc2)cc(C(=O)N[C@H]2CCCC[C@@H]2O)c(=O)n1C | 13 | 13 | 3.1 | 102 | – | – | – | – | – |
| Cc1c(Cc2ccc(-c3cocn3)cc2)cc(C(=O)N[C@H]2CCCC[C@@H]2O)c(=O)n1C | 26 | 17 | 2.4 | 38 | 0.03 | – | – | – | – |
| CO[C@@H]1CCN(c2ccc(Cc3cc(C(=O)N[C@H]4CCCC[C@@H]4O)c(=O)n(C)c3C)cc2)C1 | 23 | 22 | 2.2 | 1690 | – | – | – | – | – |
| Cc1cnc(C(=O)N[C@H]2CCCC[C@@H]2O)cc1Cc1ccc(-n2cccn2)cc1 (single isomer, unassigned) | 19 | 20 | 1.5 | – | – | – | – | – | – |
| Cc1cc(F)c(C(=O)N[C@H]2CCOC[C@@H]2O)cc1Cc1ccc(-n2cccn2)cc1 | 20 | < 10 | 1.5 | 115 | – | – | – | – | – |
| Cc1c(Cc2ccc(-n3cccn3)cc2)cc(C(=O)N[C@H]2CCOC[C@@H]2O)c(=O)n1C | 20 | < 8 | > 5.3 | 20 | – | – | – | – | – |
| O=C(N[C@H]1CCOC[C@@H]1O)c1cc(Cc2ccc(-n3cccn3)cc2)ccn1 | 24 | < 8 | 1.8 | > 9000 | – | – | – | – | – |
| Cc1ncc(C(=O)N[C@H]2CCOC[C@@H]2O)cc1Cc1ccc(-n2cccn2)cc1 | 8 | < 8 | 6.3 | 392 | – | – | – | – | – |
| Cc1c(Cc2ccc(-n3cccn3)cc2)cc(C(=O)N[C@H]2CCCC[C@@H]2O)c(=O)n1C | 23 | 20 | 2.7 | 29 | 0.05 | – | – | – | – |

Other lines, results leading:

| Papp [1] [×10⁻⁶ cm/s] | CLint scaled [2] [mL/min/kg] | efflux ratio (MDR1 (P-gp)) | EC50 [3] [nM] | Kp [4] | Fu [5] [%] | Fu [6] [%] | Kp uu [7] | Kp [8] | SMILES |
| --- | --- | --- | --- | --- | --- | --- | --- | --- | --- |
| 32 | < 8 | 1.2 | – | – | – | – | – | – | Cc1cnc(C(=O)N[C@H]2CCOC[C@@H]2O)cc1Cc1ccc(-c2cocn2)cc1 |
| 17 | 26 | 2.4 | 166 | – | – | – | – | – | Cc1c(Cc2ccc(-c3cscn3)cc2)cc(C(=O)N[C@H]2CCCC[C@@H]2O)c(=O)n1C |
| 16 | < 8 | 2.2 | 208 | – | – | – | – | – | Cc1ccc(C(=O)N[C@H]2CCOC[C@@H]2O)cc1Cc1ccc(-n2cccn2)cc1 |
| 21 | < 8 | 1.4 | – | – | 7.4 | 9 | 0.23 | 0.2 | Cc1cnc(C(=O)N[C@H]2CCOC[C@@H]2O)cc1Cc1ccc(-n2cccn2)cc1 |
| 19 | 23 | 1.9 | > 9000 | – | – | – | – | – | Cc1cc(N)c(C(=O)N[C@H]2CCOC[C@@H]2O)cc1Cc1ccc(-n2cccn2)cc1 (racemic) |
